Results reported in patent US6737383B1, “Herbicidal oxadiazolidines” (priority 1999, dated 2004).

Columns and labels:
sugar beet = test: Test B pre/postemergence sugar beet; format: in vivo, Beta vulgaris; settings: for Plant response rating, Sugarbeets: scale of 0 to 10 where 0 is no effect and 10 is complete control
In short: (§1)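 Response is a visual 0-to-10 score relative to untreated plants, where 0 means no effect and 10 means complete control, taken twelve to sixteen days after application. Treatments went onto soil at planting and onto foliage of 1- to 4-leaf plants, using a surfactant-containing non-phytotoxic solvent.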

bamyardgrass = test: Test B flood test barnyardgrass; format: in vivo, Echinochloa crus-galli
In short: (§2)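 Plants were grown to the 2-leaf stage before treatment with test chemical, then held in a greenhouse for twelve to sixteen days. Injury was visually rated against untreated controls on a 0–10 scale, where 0 is no effect and 10 is complete control.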

purple nutsedge = test: Test B pre/postemergence purple nutsedge; format: in vivo, Cyperus rotundus; settings: for Plant response rating, Nutsedge: scale of 0 to 10 where 0 is no effect and 10 is complete control
In short: as §1

blackgrass = test: Test B pre/postemergence blackgrass; format: in vivo, Alopecurus myosuroides
In short: as §1

velvetleaf = test: Test B pre/postemergence velvetleaf; format: in vivo, Abutilon theophrasti; settings: for Plant response rating, Velvetleaf: scale of 0 to 10 where 0 is no effect and 10 is complete control
In short: as §1

smallflower flatsedge = test: Test B flood test smallflower flatsedge; format: in vivo, Cyperus difformis
In short: as §2

cocklebur = test: Test B pre/postemergence cocklebur; format: in vivo, Xanthium strumarium
In short: as §1

corn = test: Test B pre/postemergence corn; format: in vivo, Zea mays
In short: as §1

bedstraw = test: Test B pre/postemergence bedstraw; format: in vivo, Galium aparine; settings: Postemergence
In short: as §1

rice = test: Test B flood test rice; format: in vivo, Oryza sativa
In short: as §2

duck salad = test: Test B flood test duck salad; format: in vivo, Heteranthera limosa
In short: as §2

wild oat = test: Test B pre/postemergence wild oat; format: in vivo, Avena fatua; settings: for Plant response rating, Wild oats: scale of 0 to 10 where 0 is no effect and 10 is complete control
In short: as §1

wheat = test: Test B pre/postemergence wheat; format: in vivo, Triticum aestivum; settings: for Plant response rating, Wheat: scale of 0 to 10 where 0 is no effect and 10 is complete control
In short: as §1

soybean = test: Test B pre/postemergence soybean; format: in vivo, Glycine max; settings: for Plant response rating, Soybean: scale of 0 to 10 where 0 is no effect and 10 is complete control
In short: as §1

surinam grass = test: Test B pre/postemergence surinam grass; format: in vivo, Brachiaria decumbens
In short: as §1

crabgrass = test: Test B pre/postemergence crabgrass; format: in vivo, Digitaria sanguinalis
In short: as §1

rape = test: Test B pre/postemergence rape; format: in vivo, Brassica napus; settings: for Plant response rating, Rape: scale of 0 to 10 where 0 is no effect and 10 is complete control
In short: as §1

[1] = Postemergence, Rate 250 g/ha, scale 0 to 10
[2] = Preemergence, Rate 250 g/ha, scale 0 to 10, 0 is no effect, 10 is complete control
[3] = Preemergence, Rate 500 g/ha, scale 0 to 10, 0 is no effect, 10 is complete control
[4] = Rate 62 g/ha, Postemergence, scale 0 to 10 (0 no effect, 10 complete control)
[5] = Rate 125 g/ha, Postemergence, scale 0 to 10, 0 is no effect, 10 is complete control
[6] = Rate 62 g/ha, flood test species, Pre-emergence, visual evaluation after twelve to sixteen days
[7] = Rate 125 g/ha, under heading Pre-emergence, flood test species, visual evaluation after twelve to sixteen days
[8] = Rate 250 g/ha, Pre-emergence (flood test species), scale 0 to 10, 0 is no effect, 10 is complete control
[9] = Rate 500 g/ha, Pre-emergence, flood test species, scale 0 to 10 (0 no effect, 10 complete control)
[10] = Postemergence, Rate 500 g/ha, scale of 0 to 10 where 0 is no effect and 10 is complete control
[11] = Preemergence, Rate 62 g/ha, scale of 0 to 10 where 0 is no effect and 10 is complete control
[12] = Preemergence, Rate 125 g/ha, scale of 0 to 10 where 0 is no effect and 10 is complete control

CC(C)N(C(=O)n1oc(=O)n(C(C)C(=O)N(C)C)c1=O)c1ccc(Cl)cc1 (stereo not shown) [Compound 480]
Sugarbeets plant response rating (sugar beet; [1]): 0 | Plant response rating, Sugarbeets (sugar beet; Preemergence, Rate 62 g/ha): 0 | Plant response rating, Sugarbeets (sugar beet; Preemergence, Rate 125 g/ha): 0 | Sugarbeets plant response rating (sugar beet; [2]): 0 | Sugarbeets plant response rating (sugar beet; [3]): 0 | Sugarbeets plant response rating (sugar beet; [4]): 0 | Sugarbeets plant response rating (sugar beet; [5]): 0 | Plant response rating, Barnyardgrass (0 to 10 scale, 0 is no effect, 10 is complete control) (bamyardgrass; [6]): 0 | Barnyardgrass plant response rating (0 to 10 scale, 0 is no effect, 10 is complete control) (bamyardgrass; [7]): 0 | Barnyardgrass plant response rating (bamyardgrass; [8]): 0 | Barnyardgrass plant response rating (bamyardgrass; [9]): 0 | Nutsedge plant response rating (purple nutsedge; [1]): 0 | Plant response rating, Nutsedge (purple nutsedge; Preemergence, Rate 62 g/ha): 0 | Plant response rating, Nutsedge (purple nutsedge; Preemergence, Rate 125 g/ha): 0 | Nutsedge plant response rating (purple nutsedge; [2]): 0 | Nutsedge plant response rating (purple nutsedge; [3]): 0 | Nutsedge plant response rating (purple nutsedge; [4]): 0 | Nutsedge plant response rating (purple nutsedge; [5]): 0 | Blackgrass plant response rating (blackgrass; [1]): 3 | Blackgrass plant response rating (blackgrass; [10]): 8 | Plant response rating, Blackgrass (blackgrass; [11]): 3 | Plant response rating, Blackgrass (blackgrass; [12]): 5 | Blackgrass plant response rating (blackgrass; [2]): 8 | Blackgrass plant response rating (blackgrass; [3]): 9 | Blackgrass plant response rating (blackgrass; [4]): 0 | Blackgrass plant response rating (blackgrass; [5]): 3 | Velvetleaf plant response rating (velvetleaf; [1]): 0 | Plant response rating, Velvetleaf (velvetleaf; Preemergence, Rate 62 g/ha): 0 | Plant response rating, Velvetleaf (velvetleaf; Preemergence, Rate 125 g/ha): 0 | Velvetleaf plant response rating (velvetleaf; [2]): 0 | Velvetleaf plant response rating (velvetleaf; [3]): 0 | Velvetleaf plant response rating (velvetleaf; [4]): 0 | Velvetleaf plant response rating (velvetleaf; [5]): 0 | Plant response rating, S. Flatsedge (0 to 10 scale, 0 is no effect, 10 is complete control) (smallflower flatsedge; [6]): 0 | S. Flatsedge plant response rating (0 to 10 scale, 0 is no effect, 10 is complete control) (smallflower flatsedge; [7]): 0 | S. Flatsedge plant response rating (smallflower flatsedge; [8]): 0 | S. Flatsedge plant response rating (smallflower flatsedge; [9]): 0 | Cocklebur plant response rating (cocklebur; [1]): 0 | Cocklebur plant response rating (cocklebur; [10]): 1 | Plant response rating, Cocklebur (cocklebur; [11]): 0 | Plant response rating, Cocklebur (cocklebur; [12]): 0 | Cocklebur plant response rating (cocklebur; [2]): 0 | Cocklebur plant response rating (cocklebur; [3]): 0 | Cocklebur plant response rating (cocklebur; [4]): 0 | Cocklebur plant response rating (cocklebur; [5]): 0 | Corn plant response rating (corn; [1]): 0 | Corn plant response rating (corn; [10]): 2 | Plant response rating, Corn (corn; [11]): 0 | Plant response rating, Corn (corn; [12]): 0 | Corn plant response rating (corn; [2]): 0 | Corn plant response rating (corn; [3]): 3 | Corn plant response rating (corn; [4]): 0 | Corn plant response rating (corn; [5]): 0 | Bedstraw plant response rating (bedstraw; Rate 250 g/ha, scale 0 to 10): 0 | Bedstraw plant response rating (bedstraw; Rate 500 g/ha, scale of 0 to 10 where 0 is no effect and 10 is complete control): 0 | Bedstraw plant response rating (bedstraw; Rate 62 g/ha, scale 0 to 10 (0 no effect, 10 complete control)): 0 | Bedstraw plant response rating (bedstraw; Rate 125 g/ha, scale 0 to 10, 0 is no effect, 10 is complete control): 0 | Plant response rating, Rice (0 to 10 scale, 0 is no effect, 10 is complete control) (rice; [6]): 0 | Rice plant response rating (0 to 10 scale, 0 is no effect, 10 is complete control) (rice; [7]): 0 | Rice plant response rating (rice; [8]): 0 | Rice plant response rating (rice; [9]): 0 | Plant response rating, Ducksalad (0 to 10 scale, 0 is no effect, 10 is complete control) (duck salad; [6]): 0 | Ducksalad plant response rating (0 to 10 scale, 0 is no effect, 10 is complete control) (duck salad; [7]): 0 | Ducksalad plant response rating (duck salad; [8]): 0 | Ducksalad plant response rating (duck salad; [9]): 0 | Wild oats plant response rating (wild oat; [1]): 0 | Plant response rating, Wild oats (wild oat; Preemergence, Rate 62 g/ha): 0 | Plant response rating, Wild oats (wild oat; Preemergence, Rate 125 g/ha): 2 | Wild oats plant response rating (wild oat; [2]): 4 | Wild oats plant response rating (wild oat; [3]): 7 | Wild oats plant response rating (wild oat; [4]): 0 | Wild oats plant response rating (wild oat; [5]): 0 | Wheat plant response rating (wheat; [1]): 0 | Plant response rating, Wheat (wheat; Preemergence, Rate 62 g/ha): 0 | Plant response rating, Wheat (wheat; Preemergence, Rate 125 g/ha): 0 | Wheat plant response rating (wheat; [2]): 0 | Wheat plant response rating (wheat; [3]): 2 | Wheat plant response rating (wheat; [4]): 0 | Wheat plant response rating (wheat; [5]): 0 | Soybean plant response rating (soybean; [1]): 3 | Plant response rating, Soybean (soybean; Preemergence, Rate 62 g/ha): 0 | Plant response rating, Soybean (soybean; Preemergence, Rate 125 g/ha): 0 | Soybean plant response rating (soybean; [2]): 0 | Soybean plant response rating (soybean; [3]): 1 | Soybean plant response rating (soybean; [4]): 2 | Soybean plant response rating (soybean; [5]): 3 | B. signalgrass plant response rating (surinam grass; Postemergence, Rate 250 g/ha, scale 0 to 10, 0 no effect, 10 complete control): 5 | B. signalgrass plant response rating (surinam grass; [10]): 6 | Plant response rating, B. signalgrass (surinam grass; [11]): 0 | Plant response rating, B. signalgrass (surinam grass; [12]): 4 | B. signalgrass plant response rating (surinam grass; [2]): 7 | B. signalgrass plant response rating (surinam grass; [3]): 9 | B. signalgrass plant response rating (surinam grass; [4]): 0 | B. signalgrass plant response rating (surinam grass; [5]): 3 | Crabgrass plant response rating (crabgrass; [1]): 7 | Crabgrass plant response rating (crabgrass; [10]): 8 | Plant response rating, Crabgrass (crabgrass; [11]): 7 | Plant response rating, Crabgrass (crabgrass; [12]): 8 | Crabgrass plant response rating (crabgrass; [2]): 8 | Crabgrass plant response rating (crabgrass; [3]): 10 | Crabgrass plant response rating (crabgrass; [4]): 2 | Crabgrass plant response rating (crabgrass; [5]): 6 | Rape plant response rating (rape; [1]): 0 | Plant response rating, Rape (rape; Preemergence, Rate 62 g/ha): 0 | Plant response rating, Rape (rape; Preemergence, Rate 125 g/ha): 0 | Rape plant response rating (rape; [2]): 0 | Rape plant response rating (rape; [3]): 0 | Rape plant response rating (rape; [4]): 0 | Rape plant response rating (rape; [5]): 0
